# Target: T1, human DLK (Homo sapiens, UniProt Q12852)
# T1 sequence (Q12852 1-859): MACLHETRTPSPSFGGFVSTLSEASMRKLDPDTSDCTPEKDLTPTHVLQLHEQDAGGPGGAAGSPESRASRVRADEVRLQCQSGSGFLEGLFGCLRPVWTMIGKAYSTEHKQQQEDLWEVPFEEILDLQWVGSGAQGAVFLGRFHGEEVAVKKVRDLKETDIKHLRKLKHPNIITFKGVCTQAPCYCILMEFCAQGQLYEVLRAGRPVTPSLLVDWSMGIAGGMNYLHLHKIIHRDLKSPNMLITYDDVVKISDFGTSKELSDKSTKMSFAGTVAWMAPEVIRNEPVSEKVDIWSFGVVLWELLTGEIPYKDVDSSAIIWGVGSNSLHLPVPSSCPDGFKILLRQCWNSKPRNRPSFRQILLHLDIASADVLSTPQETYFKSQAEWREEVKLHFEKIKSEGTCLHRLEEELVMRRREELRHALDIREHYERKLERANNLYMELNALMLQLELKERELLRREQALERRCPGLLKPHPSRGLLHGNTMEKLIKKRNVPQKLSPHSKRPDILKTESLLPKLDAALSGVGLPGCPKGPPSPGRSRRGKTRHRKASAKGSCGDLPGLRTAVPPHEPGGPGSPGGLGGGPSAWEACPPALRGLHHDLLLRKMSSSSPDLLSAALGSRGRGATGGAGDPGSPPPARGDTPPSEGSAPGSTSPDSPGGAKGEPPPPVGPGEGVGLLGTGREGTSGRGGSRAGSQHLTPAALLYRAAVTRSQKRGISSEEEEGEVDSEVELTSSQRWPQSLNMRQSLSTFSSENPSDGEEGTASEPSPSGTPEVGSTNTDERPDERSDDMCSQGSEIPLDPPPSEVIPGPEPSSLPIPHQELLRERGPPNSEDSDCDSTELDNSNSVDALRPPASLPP
# Test: DLK Kd Determinations (KINOMEscan KdELECT, DiscoveRx)
# Set-up: full length of human DLK (amino acids 1-859); host or cells: transiently transfected HEK293 cells; unpurified extract
# Details: fusion protein of full length human DLK (amino acids 1-859) and NFkB DNA binding domain; qPCR readout; duplicate
# Experimental: The DLK dissociation constants (Kd) have been determined in the KINOMEscan KdELECT Service at DiscoveRx.
# A fusion protein of full length of human DLK (amino acids 1-859) and the DNA binding domain of NFkB was expressed in transiently transfected HEK293 cells. From these HEK 293 cells, extracts were prepared in M-PER extraction buffer (Pierce) in the presence of Protease Inhibitor Cocktail Complete (Roche) and Phosphatase Inhibitor Cocktail Set II (Merck) per manufacturers' instructions. The DLK fusion protein was labeled with a chimeric double-stranded DNA tag containing the NFkB binding site (5′-GGGAATTCCC-3′) fused to an amplicon for qPCR readout, which was added directly to the expression extract (the final concentration of DNA-tag in the binding reaction is 0.1 nM).
# Streptavidin-coated magnetic beads (Dynal M280) were treated with a biotinylated small molecule ligand for 30 minutes at room temperature to generate affinity resins the binding assays. The liganded beads were blocked with excess biotin and washed with blocking buffer (SeaBlock (Pierce), 1% BSA, 0.05% Tween 20, 1 mM DTT) to remove unbound ligand and to reduce nonspecific binding.
# Extracts were used directly in binding assays without any enzyme purification steps at a ≧10,000-fold overall stock dilution (final DNA-tagged enzyme concentration <0.1 nM). Extracts were loaded with DNA-tag and diluted into the binding reaction in a two step process. First extracts were diluted 1:100 in 1× binding buffer (PBS/0.05% Tween 20/10 mM DTT/0.1% BSA/2 μg/ml sonicated salmon sperm DNA) containing 10 nM DNA-tag. This dilution was allowed to equilibrate at room temperature for 15 minutes and then subsequently diluted 1:100 in 1× binding buffer. Test compounds were prepared as 111× stocks in 100% DMSO. Kds were determined using an 11-point 3-fold compound dilution series with three DMSO control points. All compounds for Kd measurements are distributed by acoustic transfer (non-contact dispensing) in 100% DMSO. The compounds were then diluted directly into the assays such that the final concentration of DMSO was 0.9%. All reactions performed in polypropylene 384-well plates. Each was a final volume of 0.02 mL. Assays were incubated with shaking for 1 hour at room temperature. Then the beads were pelleted and washed with wash buffer (1×PBS, 0.05% Tween 20) to remove displaced kinase and test compound. The washed based were re-suspended in elution buffer (1×PBS, 0.05% Tween 20, 0.5 μM non-biotinylated affinity ligand) and incubated at room temperature with shaking for 30 minutes. The kinase concentration in the eluates was measured by qPCR. qPCR reactions were assembled by adding 2.5 μL of kinase eluate to 7.5 μL of qPCR master mix containing 0.15 μM amplicon primers and 0.15 μM amplicon probe. The qPCR protocol consisted of a 10 minute hot start at 95° C., followed by 35 cycles of 95° C. for 15 seconds, 60° C. for 1 minute.
# Test compounds were prepared as 111× stocks in 100% DMSO. Kds were determined using an 11-point 3-fold compound dilution series with three DMSO control points. All compounds for Kd measurements are distributed by acoustic transfer (non-contact dispensing) in 100% DMSO. The compounds were then diluted directly into the assays such that the final concentration of DMSO was 0.9%. The Kds were determined using a compound top concentration of 30,000 nM. Kd measurements were performed in duplicate.
# Binding constants (Kds) were calculated with a standard dose-response curve using the Hill equation: […]
# The Hill Slope was set to −1. Curves were fitted using a non-linear least square fit with the Levenberg-Marquardt algorithm (Levenberg, K., A method for the solution of certain non-linear problems in least squares, Q. Appl. Math. 2, 164-168 (1944)). See also Fabian, M. A. et al. A small molecule-kinase interaction map for clinical kinase inhibitors. Nat. Biotechnol. […]
row,Structure (SMILES),Kd [nM]
1,"CC(C)c1nc(-c2cnc(N)c(C(F)(F)F)c2)cn1[C@H]1[C@@H]2CN(C3COC3)C[C@@H]21 [Example 12, 5-(2-isopropyl-1-((1R,5S,6s)-3-(oxetan-3-yl)-3-azabicyclo[3.1.0]hexan-6-yl)-1H-imidazol-4-yl)-3-(trifluoromethyl)pyridin-2-amine]",47
2,"Nc1ncc(-c2cn([C@H]3[C@@H]4CN(C5COC5)C[C@@H]43)c(C3CCC3)n2)cc1OC(F)(F)F [Example 56, 5-(2-cyclobutyl-1-((1R,5S,6s)-3-(oxetan-3-yl)-3-azabicyclo[3.1.0]hexan-6-yl)-1H-imidazol-4-yl)-3-(trifluoromethoxy)pyridin-2-amine]",280
3,"Nc1ncc(-c2cn([C@H]3[C@@H]4CN(CC(F)F)C[C@@H]43)c(C3CC3)n2)cc1OC(F)F [Example 103, 5-(2-cyclopropyl-1-((1R,5S,6s)-3-(2,2-difluoroethyl)-3-azabicyclo[3.1.0]hexan-6-yl)-1H-imidazol-4-yl)-3-(difluoromethoxy)pyridin-2-amine]",92
4,"CC(C)c1nc(-c2cnc(N)c(C(F)(F)F)c2)cn1[C@H]1[C@@H]2CC(N3CCOCC3)C[C@@H]21 (mixture of isomers) [Example 3, 5-(2-isopropyl-1-((1R,5S,6r)-3-morpholinobicyclo[3.1.0]hexan-6-yl)-1H-imidazol-4-yl)-3-(trifluoromethyl)pyridin-2-amine]",51
5,"CC(=O)N1C[C@@H]2[C@H](C1)[C@H]2n1cc(-c2cnc(N)c(C(F)(F)F)c2)nc1C(C)C [Example 14, 1-(6-(4-(6-amino-5-(trifluoromethyl)pyridin-3-yl)-2-isopropyl-1H-imidazol-1-yl)-3-azabicyclo[3.1.0]hexan-3-yl)ethan-1-one]",170
6,"CC(C)n1cc(-c2cnc(N)c(C(F)(F)F)c2)nc1C1CC1 [Example 8, 5-[2-cyclopropyl-1-(propan-2-yl)-1H-imidazol-4-yl]-3-(trifluoromethyl)pyridin-2-amine]",130
7,"CC(=O)N1C[C@@H]2[C@H](C1)[C@H]2n1cc(-c2cnc(N)c(OC(F)(F)F)c2)nc1C1CC1 [Example 54, 1-((1R,5S)-6-(4-(6-amino-5-(trifluoromethoxy)pyridin-3-yl)-2-cyclopropyl-1H-imidazol-1-yl)-3-azabicyclo[3.1.0]hexan-3-yl)ethan-1-one]",110
8,"Nc1ncc(-c2cn([C@H]3[C@@H]4CN(CCF)C[C@@H]43)c(CC3CC3)n2)cc1OC(F)(F)F [Example 101, 5-(2-(cyclopropylmethyl)-1-((1R,5S,6s)-3-(2-fluoroethyl)-3-azabicyclo[3.1.0]hexan-6-yl)-1H-imidazol-4-yl)-3-(trifluoromethoxy)pyridin-2-amine]",81
9,"CC(C)c1nc(-c2cnc(N)c(C(F)(F)F)c2)cn1C1CCCC1 [Example 28, 5-(1-cyclopentyl-2-isopropyl-1H-imidazol-4-yl)-3-(trifluoromethyl)pyridin-2-amine]",220
10,"CC(C)c1nc(-c2cnc(N)c(OC(F)(F)F)c2)cn1[C@H]1[C@@H]2CN(CC(F)(F)F)C[C@@H]21 [Example 110, 5-(2-isopropyl-1-((1R,5S,6s)-3-(2,2,2-trifluoroethyl)-3-azabicyclo[3.1.0]hexan-6-yl)-1H-imidazol-4-yl)-3-(trifluoromethoxy)pyridin-2-amine]",280
11,"CC(C)c1nc(-c2cnc(N)c(C(F)(F)F)c2)cn1Cc1ccccn1 [Example 30, 5-(2-isopropyl-1-(pyridin-2-ylmethyl)-1H-imidazol-4-yl)-3-(trifluoromethyl)pyridin-2-amine]",1500
12,"CC(=O)N1C[C@@H]2[C@H](C1)[C@H]2n1cc(-c2cnc(N)c(OC(F)(F)F)c2)nc1CC1CC1 [Example 91, 1-((1R,5S,6s)-6-(4-(6-amino-5-(trifluoromethoxy)pyridin-3-yl)-2-(cyclopropylmethyl)-1H-imidazol-1-yl)-3-azabicyclo[3.1.0]hexan-3-yl)ethan-1-one]",77
13,"CC(C)c1nc(-c2cnc(N)c(C(F)(F)F)c2)cn1C1CC2(COC2)C1 [Example 23, 5-(2-isopropyl-1-(2-oxaspiro[3.3]heptan-6-yl)-1H-imidazol-4-yl)-3-(trifluoromethyl)pyridin-2-amine]",220
14,"CC(C)c1nc(-c2cnc(N)c(OC(F)(F)F)c2)cn1[C@H]1[C@@H]2CN(CCF)C[C@@H]21 [Example 111, 5-(1-((1R,5S,6s)-3-(2-fluoroethyl)-3-azabicyclo[3.1.0]hexan-6-yl)-2-isopropyl-1H-imidazol-4-yl)-3-(trifluoromethoxy)pyridin-2-amine]",100
15,"Nc1ncc(-c2cn(CC3CC3)c([C@H]3[C@@H]4CN(C5COC5)C[C@@H]43)n2)cc1C(F)(F)F [Example 1, 5-(1-(cyclopropylmethyl)-2-((1R,5S,6r)-3-(oxetan-3-yl)-3-azabicyclo[3.1.0]hexan-6-yl)-1H-imidazol-4-yl)-3-(trifluoromethyl)pyridin-2-amine]",140
16,"Nc1ncc(-c2cn([C@H]3[C@@H]4CN(CC(F)(F)F)C[C@@H]43)c(CC(F)(F)F)n2)cc1C(F)(F)F [Example 124, 5-(2-(2,2,2-trifluoroethyl)-1-((1R,5S,6s)-3-(2,2,2-trifluoroethyl)-3-azabicyclo[3.1.0]hexan-6-yl)-1H-imidazol-4-yl)-3-(trifluoromethyl)pyridin-2-amine]",240
17,"CC(C)c1nc(-c2cnc(N)c(C(F)(F)F)c2)cn1C1CCC(O)CC1 (stereo not shown) [Example 33, 4-(4-(6-amino-5-(trifluoromethyl)pyridin-3-yl)-2-isopropyl-1H-imidazol-1-yl)cyclohexan-1-ol]",130
18,"CC(C)c1nc(-c2cnc(N)c(C(F)(F)F)c2)cn1C1CN(C2COC2)C1 [Example 27, 5-(2-isopropyl-1-(1-(oxetan-3-yl)azetidin-3-yl)-1H-imidazol-4-yl)-3-(trifluoromethyl)pyridin-2-amine]",270
19,"Nc1ncc(-c2cn([C@H]3[C@@H]4CN(CC(F)(F)F)C[C@@H]43)c(C3CC3)n2)cc1OC(F)(F)F [Example 70, 5-(2-cyclopropyl-1-((1R,5S,6s)-3-(2,2,2-trifluoroethyl)-3-azabicyclo[3.1.0]hexan-6-yl)-1H-imidazol-4-yl)-3-(trifluoromethoxy)pyridin-2-amine]",510
